A short description of data set [1]: Absorptive (apical to basolateral) DHE permeability assay through Caco-2 monolayers. It counts as in vitro ADME, human. Particulars: human, Caco-2, pH 7.4, GCA 10 mM, absence of coffee, 6 h, read-out: DHE apparent permeability coefficient (Papp). How it is done:
(§1) For transport experiments, the Caco-2 monolayers were prepared by seeding the cells at a density of 2.6 × 10^5 cells/cm^2 on 12-well polycarbonate Transwell^TM plates, following protocols previously defined for this assay. The cells were cultured until monolayer differentiation, for a total of 24 days, with culture medium being renewed every two days. On the day of the experiment, the culture medium was removed and replaced by HBSS medium pre-warmed at 37 °C (0.5 mL in the apical and 1.5 mL in the basolateral sides). The cell monolayers were placed in an incubator at 37 °C with a plate orbital shaker (IKA-Schüttler MTS4) at 50 rpm for 8 min. After two washing steps, the transepithelial electrical resistance (TEER) values were measured using a Millicell® ERS-2 voltmeter (Merck). The net TEER values (Ω cm^2) were obtained by subtracting the cell-free filter resistance and multiplying by filter area. All cell monolayers achieved TEER values exceeding 700 Ω cm^2 and were considered adequate for transport experiments.
(§2) In assessing the influence of coffees samples on DHE absorption by intestinal epithelia, the transport was studied in the absorptive way; that is, in the apical (mimicking the intestinal lumen) to the basolateral (mimicking the bloodstream) direction. The solutions of DHE to be applied in the apical side were prepared as follows: first, the lyophilized coffee extracts (16-fold diluted) were dissolved with GCA (10 mM) solution in HBSS. Then, the mixtures were allowed to equilibrated overnight in a 37 °C in a water bath with shaking at 100 rpm. On the day of the experiment, DHE was added to the coffee/GCA mixture or to GCA only (Control) as an aliquot from a DMSO stock of 10 mM DHE. Addition was performed under vigorous vortex mixing to facilitate DHE interaction with the GCA micelles and prevent its precipitation. The final DHE concentration ranged from 10 to 100 μM, corresponding to ≤1% (v/v) DMSO. To allow evaluation of the cell monolayer integrity in each permeability assay, the paracellular marker Lucifer Yellow (LY) was also added to the final mixtures at a concentration of 20 μM. The solutions were maintained at 37 °C until application in the permeability assay, and where optically clear.
(§3) It was therefore necessary to guarantee that the composition of the acceptor compartment in the permeability assay has an adequate ability to solubilize the sterol and allow its quantification. To approach the in vivo conditions in absorptive cholesterol transport, the acceptor compartment contained serum albumin at 100 µM, which corresponds to the concentration usually found in interstitial tissues. Serum albumin binds the cholesterol analog DHE with low to moderate affinity, KB = 5 × 10^4 [37], and at the concentration used DHE solubility is increased by at least an order of magnitude. To decrease the adsorption of DHE to the plate well and to the basolateral membrane, the transport media added to the basolateral side contained additionally 1% (v/v) DMSO. The presence of BSA and DMSO lead to improved sink conditions and higher DHE recoveries. The solutions from the acceptor compartments in the permeability assay where lyophilized directly in the wells of the permeability assay. A small amount of water was then added to facilitate detachment from the plate and solubilize salts and BSA. Ice-cold methanol was then added to dissolve DHE and precipitate the serum albumin. The DHE recovery efficiency when following this procedure was at least 90% (for details see Table S3 of the Supplementary Materials).
(§4) To start the absorptive transport experiments, the HBSS on the apical side was removed and replaced with 450 μL of the test solution (emulsified DHE + LY, emulsified DHE + coffee + LY or LY solutions). After addition of the test solution, 50 μL was collected (corresponding to a time delay of about 2 min) and the inserts were moved to a 12-well plate containing 1.2 mL of the basolateral transport medium. […]
In general terms: Caco-2 cells form a polarised layer with tight junctions and transporters.

Data set [2] deals with Caco-2 monolayers. The description is as above. It counts as in vitro ADME, human. How it is done: as §1, §2, §3, §4
A short description of data set [3]: Solubility of DHE in GCA micelles (DHE fluorescence intensity). It counts as physicochemical. Particulars: GCA 10 mM; Figure S6. How it is done:
S5 – Solubility of DHE in GCA micelles
The solubility of DHE in the GCA micelles at the concentration of GCA used in the
permeability assays (10 mM) was characterized from variations in DHE fluoresc ence in-
tensity. The c once ntrati on of DHE was varied from 1 to 70 μM, with DHE bei ng ad ded to
the GCA solution by squirti ng a small v olume of a DHE solution i n DMSO (% DMSO < 1
%). The solutions obtai ned were optically clear and stable. However, the flu oresce nce in-
tensity measured in a right-angle geometry was not linearly dependent on the intensity
of light absorbed, Figure S6. This behaviour is in part due to geometr ical constraints due
to the right-angle detection, with a significant fluoresce nce being emitted but not detected.
present as small aggregates.
Figure S6. Dependence of DHE fluorescence intensity ex/em = 324/372 nm on the intensity of light
absorbed by DHE, when added to aqueous solutions containing 10 mM GCA. The hollow symbols
correspond to DHE concentrations equal to 1, 5 and 10 μM, and the filled symbols correspond to
DHE at 25, 50 and 70 μM. The line represents the best fit for the hollow symbols. […]

Details of data set [4]: method as in PMID 4027244. Particulars: aqueous media; cited from earlier work.
On the set-up of data set [5]: method as in PMID 17766353. Particulars: cited from earlier work.
Data set [6] is described as follows: MTT cell viability assay (bile salts and coffee extracts). It counts as cell-based. Particulars: human, Caco-2 cells, pH 7.4; for viability at 2 h: Figure S4 (incubation 2 h). The procedure: The influence of bile salts and coffee extracts on the Caco-2 cells viability was assessed with the MTT assay for determination of mitochondrial activity in active cells. Briefly, the cells were seeded in 96-well plates at a density of 1 × 10^4 cells/well in 200 μL of medium. Cells were then maintained in culture until confluence, for 96 h with medium renewal after 3 days. Solutions of individual bile salts GCDCA, GDCA, GCA and the combination of all three were prepared in the transport buffer HBSS (containing 25 mM HEPES, 0.35 g/L sodium bicarbonate, pH 7.4) at several concentrations above their critical micellar concentration (CMC). Two-fold serial dilutions of individual coffee extracts or mixtures with the bile salts were prepared by diluting the lyophilized extracts in HBSS or HBSS plus bile salts. The following controls were also included: 20% (v/v) of dimethyl sulfoxide (DMSO) in HBSS (positive control) and only HBSS (negative control). The cells were incubated for 6 h with test samples or controls (200 μL). Then, the cells were washed with PBS and incubated with 150 μL of MTT diluted in medium (0.5 mg/mL) for 4 h at 37 °C. Finally, the medium was discarded, and the formazan crystals produced by active cells were solubilized with dimethyl sulfoxide (150 μL) for 15 min under continuous stirring. The absorbances were measured at 570 nm in a Synergy HT Microplate Reader (BioTek Instruments, Inc., Winooski, VT, USA). All conditions were performed in triplicate. Results are expressed as a percentage of cell viability relative to the negative control.

The conditions of data set [7]: 50 mM bile salt concentration; cited from earlier work.
Details of data set [8]: method as in PMID 27079626, PMID 22569559. Particulars: cited from earlier work.
Data set [9] has as its system Caco-2 monolayers. Kind of data set: Lucifer Yellow paracellular permeability through Caco-2 monolayers (cell monolayer integrity). It counts as in vitro ADME, human. The procedure: as §1, §2
To start the absorptive transport experiments, the HBSS on the apical side was removed and replaced with 450 μL of the test solution (emulsified DHE + LY, emulsified DHE + coffee + LY or LY solutions). After addition of the test solution, 50 μL was collected (corresponding to a time delay of about 2 min) and the inserts were moved to a 12-well plate containing 1.2 mL of the basolateral transport medium. The plate was kept at 37 °C under stirring at 50 rpm for a total period of 6 h, with the assays being performed with either a single point sampling or three-points with 2 h sampling intervals. During the three-point sampling assay, 25 μL of the apical compartment was withdrawn at 2 and 4 h and replaced with fresh HBSS. At each time point indicated, the insert was also moved to another 12-well plate containing fresh basolateral medium (transfer sampling). At the end of the experiment (t6h), the inserts were transferred into empty wells and 50 μL were collected from the apical compartment and the remaining solution was decanted and stored. The 12-well plates with the samples of the basolateral compartments were frozen (−18 °C) and lyophilized. The same procedure was also applied to the aliquots of the apical side. All samples were then stored in a humidity-controlled environment until analysis.
The paracellular permeability of each cell monolayer was assessed by the quantification of LY transport from the apical and basolateral sides. For the samples from the apical side, aliquots of 50 μL were withdrawn at the beginning and end of the permeation experiment. The samples were diluted 30-fold and 100 µL were transferred to a 96-wells plate with clear bottom and black sides (Thermo Scientific Nunc). […]

Where [10] appears, read: average over Table 2 samples (DHE 10, 50 and 100 µM).
Setting [11] is: multi-time point assay, LY 20 µM alone or with DHE 10 µM emulsified by GCA 10 mM, without or with coffee extract (16-fold diluted), n = 2.

Read-outs that look alike come from different tables or passages of the source. A value given as a limit tells only on which side of the number the result lay.

With `CC(C)[C@@H](C)C=C[C@@H](C)[C@H]1CC[C@H]2C3=CC=C4C[C@@H](O)CC[C@]4(C)C3=CC[C@]12C` [DHE, ergosta-5,7,9(11),22-tetraen-3β-ol], the Papp (usually the rate of passage across a membrane or cell layer, normalised by area and donor concentration) at 6 h, 50 µM in data set [1] (50 µM DHE) came out at 0.0017 ×10⁻⁶ cm/s. Also, the Papp at 6 h, 100 µM in data set [1] (100 µM DHE) amounted to 0.026 ×10⁻⁶ cm/s. Also, the “DHE in the acceptor (basolateral) compartment” value in data set [2] (DHE 10 µM apical, transfer sampling at 2, 4 and 6 h, detection limit 1.6 pmol) was “not detected”. Besides, in data set [2] (DHE 10 µM, GCA 10 mM, about 2 min, control (no coffee) or with coffee brew diluted 16 times), the “fraction of DHE that disappears from the apical transport media immediately after addition to the cell monolayers” value is 18.5 ± 3.9%. Moreover, in [2] (DHE 10 µM, GCA 10 mM, at 4 and 6 h incubation), the “additional decrease of DHE in suspension in the apical compartment” value was “about 2%”. The “amount of DHE extracted from the cells” value in data set [2] (end of permeability assay (6 h), DHE 10 µM, GCA 10 mM, control or with coffee brew) was 16.3 ± 4.7%. Moreover, the “DHE emulsified by GCA” value in data set [3] is “up to 10 µM”. Besides, the “estimated critical aggregation concentration” value in data set [4] is 25 nM. In addition, the “characteristic rate constant for desorption from membranes” value in [5] (liquid disordered phase) was 0.001 s⁻¹; in [5] (liquid ordered phase), 6.9e-05 s⁻¹.
As for `C[C@H](CCC(=O)NCC(=O)O)[C@H]1CC[C@H]2[C@@H]3[C@H](O)C[C@@H]4C[C@H](O)CC[C@]4(C)[C@H]3C[C@H](O)[C@]12C` [GCA, glycocholic acid], in data set [6] (GCA 15 mM, 6 h exposure, relative to HBSS control), the viability (usually a read-out of living cells in per cent, often relative to untreated cells) at 6 h, 15 mM came to 80%. Besides, the viability at 2 h in [6] (GCA in HBSS at concentrations ≤12.5 mM) was > 90%. For the same compound, the “capacity to emulsify cholesterol” value in data set [7] was 1.0 mM. Besides, the “critical micelle concentration (CMC)” value in data set [8] is on record as 6.5 mM.
`CC(CCC(=O)NCC(=O)O)C1CCC2C3C(O)CC4CC(O)CCC4(C)C3CCC12C` (stereo not drawn) [GCDCA, glycochenodeoxycholic acid]: in data set [7], the “capacity to emulsify cholesterol” value is listed as 1.3 mM. For the same compound, the “critical micelle concentration (CMC)” value in data set [8] is listed as 1.6 mM.
Take `CC(CCC(=O)NCC(=O)O)C1CCC2C3CCC4CC(O)CCC4(C)C3CC(O)C12C` (stereo not drawn) [GDCA, glycodeoxycholic acid]: the viability at 2 h in data set [6] (GDCA in HBSS, all tested concentrations (1.56–50 mM)) was < 10%. The “capacity to emulsify cholesterol” value in data set [7] was “up to 3 mM”. Besides, in [8], the “critical micelle concentration (CMC)” value is 1.7 mM.
In the case of “Lucifer yellow CH di-potassium salt [LY]”, in data set [9] (setting [10]), the “Papp of LY, average value” stood at 0.13 ×10⁻⁶ cm/s and the “amount of LY transported over the 6 h incubation, average value” was determined as 0.8%. Also, the “Papp of LY (×10^−6)” value in [9] (multi-time point assay, last time interval of 2 h, LY alone or with DHE 10 µM/GCA 10 mM, without or with coffee extract, n = 2) is recorded as 0.64 ×10^−6 cm/s. Besides, in [9] (setting [11]), the “% Transport of LY 0–2 h” value was 1.6%, the “% Transport of LY 2–4 h” value was 0.9% and the “% Transport of LY 4–6 h” value amounted to 1.3%. In [9] (single time point 6 h, LY only), the “% Transport of LY 6 h” value came out at 1.6% and the “Papp of LY (×10^−6)” value is 0.27 ×10^−6 cm/s.

The record behind these values is publication PMC9563500, “Effect of Coffee on the Bioavailability of Sterols” (Foods, 2022).
